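Values below derive from 48-hour exposures of cells grown in 96-well plates, with endpoints linearly interpolated between the two concentrations bracketing the appropriate inhibition level. At the GI50, growth is halved. TGI marks complete inhibition of growth.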

Holding throughout (assay): NCI-60 cell line screen, 48 h
In experiment [1] the test system is 786-0 renal.
Experiment [2] deals with CCRF-CEM leukemia.
The subject of experiment [3] is HCT-15 colon.
The subject of experiment [4] is M14 melanoma.
The test system of experiment [5] is MOLT-4 leukemia.
In experiment [6] the test system is NCI-H226 lung.
In experiment [7] the test system is SK-MEL-28 melanoma.
The subject of experiment [8] is SR leukemia.
In experiment [9] the test system is MDA-MB-231 breast.
Experiment [10] deals with SF-539 CNS.

Consider `O=C(c1ccccc1)C1N=NN(Cc2ccccc2[N+](=O)[O-])C1C(=O)c1ccccc1` (centres undefined), for which the TGI in [1], in experiment [2], in experiment [3], in [4], in [5] and in [6] was over 100 µM in each case. The TGI in experiment [7] and in experiment [8] was over 100 µM each time.
On to `Cc1ccccc1NC(=O)CSc1nnc(-c2ccc(N=Cc3ccc(Cl)cc3)cc2)o1`, for which the TGI in experiment [1], in experiment [2], in experiment [3], in [4], in experiment [5] and in experiment [6] was over 100 µM each time. Further, the TGI in [7] and in experiment [8] was over 100 µM in each case.
Turning to `COc1c2ccoc2nc2c(OC)c(OCC(O)C(C)(C)O)ccc12` (centres undefined), the TGI in experiment [1], in [2], in [3], in [4], in experiment [9] and in [5] was over 100 µM in each case. Moreover, the TGI in experiment [6], in experiment [10] and in experiment [7] was over 100 µM each time.
Consider `O=C1CC23CCCCCCCCCCC2(C1)CC(=O)C3` (centres undefined), for which the TGI is over 100 µM in [1]; 44.4 µM in [2]; over 100 µM in experiment [3]; 44.4 µM in experiment [4]; 56.2 µM in [5]; over 100 µM in experiment [6]. Moreover, the TGI is over 100 µM in experiment [10], over 100 µM in experiment [7] and 56.5 µM in experiment [8].
In the case of `CN(C)C(=S)/N=c1\ss/c(=N\C(=S)N(C)C)n1-c1cccc(Cl)c1`, the TGI in experiment [1], in experiment [2], in [3], in [4], in experiment [5] and in [6] was over 100 µM in each case. The TGI in experiment [10], in experiment [7] and in [8] was over 100 µM in each case.
`CC1=NN(c2cccc(Cl)c2)C(=O)/C1=C\c1cn(CC(O)CN2CCCCC2)c2ccccc12` (centres undefined): the GI50 in experiment [1] was 7.46 µM; in experiment [2], 3.38 µM; in experiment [3], 2.42 µM; in experiment [4], 1.75 µM; in experiment [9], 3.32 µM; in [5], 4.76 µM. The GI50 in experiment [6] is 22.5 µM; in experiment [10], 10.2 µM; in experiment [7], 1.82 µM. The TGI in experiment [1] was 20.8 µM; in experiment [2], over 100 µM; in experiment [3], 6.7 µM; in experiment [4], 3.29 µM; in experiment [9] it was 15.8 µM; in [5], 28.8 µM. Moreover, the TGI came to 50.4 µM in [6], 26.6 µM in [10] and 3.47 µM in [7].
As to `O=C(CC1=Nc2nnc(CCCCCCCc3nnc4n3C(=O)C(CC(=O)c3ccc5ccccc5c3)=N4)n2C1=O)c1ccc2ccccc2c1`, the TGI in experiment [1], in [2], in experiment [3], in experiment [4], in experiment [5] and in experiment [6] was over 100 µM each time. The TGI in [10], in experiment [7] and in experiment [8] was over 100 µM throughout.
In the case of `COC(=O)C1CC(c2ccc(OC)c(OC)c2)OC1=O` (mixture of isomers), the TGI in experiment [1], in experiment [2], in experiment [3], in [4], in [5] and in experiment [6] was over 100 µM in each case. Further, the TGI in experiment [10], in experiment [7] and in [8] was over 100 µM in each case.
With `CCOc1ccc(NC(=O)/C(CC(=O)c2c[n+](=O)c3ccccc3n2[O-])=N\OCCCc2ccccc2)cc1`, the TGI in [1], in experiment [2], in experiment [3], in experiment [4], in [5] and in [6] was over 100 µM in each case. The TGI in [10], in experiment [7] and in experiment [8] was over 100 µM throughout.
As to `COc1ccc(-c2ccc(C3CC(c4ccccc4)=NN3)o2)c([N+](=O)[O-])c1` (centres undefined), the GI50 was 60.6 µM in [1]; 23.2 µM in experiment [2]; 37.4 µM in experiment [3]; 51.9 µM in experiment [4]; 22.9 µM in experiment [5]; 64.7 µM in [10]. Further, the results for the GI50 in experiment [7] and in experiment [8] were over 100 µM and 30.3 µM, respectively. The TGI was over 100 µM in experiment [1]; 72.2 µM in experiment [2]; over 100 µM in [3]; over 100 µM in experiment [4]; 72.9 µM in experiment [5]; over 100 µM in experiment [10]. Also, the TGI in experiment [7] is over 100 µM; in experiment [8], 87.9 µM.
In the case of `CC(C)(C)C#COC(=O)c1ccccc1`, the TGI in [1], in experiment [2], in experiment [3], in [4], in experiment [5] and in experiment [6] was over 100 µM in each case. The TGI in experiment [10] and in experiment [8] was over 100 µM throughout.
Take `O=C(Nc1ccc(Cl)cc1C(F)(F)F)C(=O)Nn1c(=S)[nH]c2ccccc2c1=O`: the TGI in experiment [1], in experiment [2], in experiment [3], in experiment [4], in [9] and in experiment [5] was over 100 µM in each case. Moreover, the TGI in experiment [6], in experiment [10] and in experiment [7] was over 100 µM each time.
As for `CC(C)C[C@@H](N)[C@@H](O)C(=O)N[C@H](C(=O)N[C@H](C(=O)N[C@@H](CC(=O)O)C(=O)O)C(C)C)C(C)C`, the GI50 in experiment [1], in experiment [2], in experiment [3], in [4], in experiment [9] and in [5] was over 20 µM throughout. Further, the GI50 in experiment [6], in experiment [10] and in [7] was over 20 µM throughout. The TGI in [1], in experiment [2], in experiment [3], in experiment [4], in experiment [9] and in [5] was over 20 µM in each case. Also, the TGI in experiment [6], in [10] and in experiment [7] was over 20 µM each time.
On to `CC(=O)Nc1ccc(C2CC(c3ccc([N+](=O)[O-])cc3)=Nc3ccccc3S2)cc1` (centres undefined), for which the TGI in experiment [1] was 31.1 µM; in experiment [2], 56 µM; in experiment [3], 37.2 µM; in experiment [4], 27.6 µM; in experiment [5], 39.6 µM; in [6], 86.3 µM. Further, the TGI in [10] amounted to 33.5 µM; in experiment [7], 38.4 µM; in [8], 61.9 µM.
Turning to `c1cnc2c(c1)-n1cccc1C1(CCCCC1)NN2`, the TGI in experiment [1], in experiment [2], in [3], in [4], in [5] and in [6] was over 100 µM in each case. Besides, the TGI in [10], in [7] and in [8] was over 100 µM in each case.
Take `CN1CCCC2[C@@H]3CCC4c5nonc5CC[C@]4(C)C3CC[C@@]21C` (some centres undefined): the TGI in [1], in [3], in [5], in experiment [6], in experiment [10] and in experiment [7] was over 100 µM each time. In experiment [8], this compound displayed a TGI of over 100 µM.
Consider `CC(=O)[CH-]C(C)=O.CC(=O)[CH-]C(C)=O.[O-]c1ccccc1.[O-]c1ccccc1.[Ti+4]`, for which the GI50 in experiment [1], in [2], in [3], in experiment [5], in experiment [6] and in experiment [10] was over 100 µM in each case. Also, the GI50 in experiment [7] and in experiment [8] was over 100 µM throughout. For the same compound, the TGI in experiment [1], in [2], in experiment [3], in [5], in experiment [6] and in experiment [10] was over 100 µM in each case. Also, the TGI in experiment [7] and in experiment [8] was over 100 µM in each case.
Consider `COc1cc2c(/C=C3\C(=O)Nc4ccccc43)c[nH]c2cc1C`, for which the GI50 was under 0.0218 µM in experiment [1]; 0.0196 µM in experiment [2]; 0.725 µM in experiment [3]; under 0.0178 µM in experiment [4]; 0.289 µM in experiment [9]; 0.142 µM in experiment [5]. In addition, the GI50 in [6] was 0.035 µM; in experiment [10] it was under 0.0138 µM; in experiment [7], 0.021 µM. Besides, the TGI in [1] stood at 12.6 µM; in experiment [2] it was 0.0734 µM; in experiment [3], 2.93 µM; in experiment [4] it was 0.843 µM; in experiment [9], 2.69 µM; in [5], 2.52 µM. The values for the TGI in experiment [6], in experiment [10] and in experiment [7] were 19.7 µM, under 0.0243 µM and 20.3 µM, respectively.
As to `O=c1c(Cc2ccccc2)c(O)cc2n1CCC2`, the TGI in experiment [1], in experiment [2], in experiment [3], in experiment [4], in experiment [5] and in experiment [6] was over 100 µM in each case. In addition, the TGI in experiment [10], in experiment [7] and in experiment [8] was over 100 µM each time.
As for `O=c1[nH]ccc(CNC23CC4CC(CC(C4)C2)C3)c1O`, the TGI in experiment [1], in experiment [2], in experiment [3], in experiment [4], in [5] and in [6] was over 100 µM throughout. The TGI in experiment [10] and in experiment [8] was over 100 µM in each case.
Turning to `CCN(CC)C(=S)SSC(C)C`, the GI50 in [1] is 17.3 µM; in experiment [2], 4.26 µM; in experiment [3], 22 µM; in experiment [4], 6.1 µM; in [9], 14.6 µM; in experiment [5], 3.76 µM. In addition, the GI50 in experiment [6] was 29.4 µM; in experiment [10], 18.4 µM; in experiment [7], 11.1 µM. The TGI in [1] came out at 31.7 µM; in experiment [2] it was 30.8 µM; in experiment [3] it was 65.4 µM; in [4] it was 20.6 µM; in [9], 32.5 µM; in [5], 25.4 µM. Also, the figures for the TGI in experiment [6], in experiment [10] and in experiment [7] were over 100 µM, 42.9 µM and 23.1 µM, respectively.
Consider `COc1cc(C)c2c(c1)CN1CN2Cc2cc(OC)cc(C)c21`, for which the TGI in [1], in [2], in experiment [3], in experiment [4], in [5] and in experiment [6] was over 100 µM each time. Further, the TGI in experiment [10] and in experiment [8] was over 100 µM throughout.
With `Cn1c(COC(=O)NCCc2ccccn2)nc2c(N3CCOCC3)nc(Cl)nc21`, the GI50 in [1] is 1.34 µM; in experiment [2], 0.62 µM; in experiment [3], 1.14 µM; in experiment [4] it was 1.53 µM; in experiment [9] it was 1.62 µM; in experiment [5] it was 2.41 µM. The GI50 is 12.3 µM in [6], 1.48 µM in experiment [10] and 1.7 µM in experiment [7]. Further, the TGI stood at 2.95 µM in experiment [1]; 12.6 µM in experiment [2]; 3.2 µM in experiment [3]; 3.34 µM in [4]; 3.63 µM in [9]; 8.09 µM in experiment [5]. The TGI amounted to 30.4 µM in experiment [6], 2.84 µM in experiment [10] and 3.47 µM in experiment [7].
As to `O=c1c2cccnc2ncn1CCCN1CCCCC1`, the TGI in experiment [1], in experiment [2], in experiment [4], in [5], in experiment [6] and in [10] was over 100 µM each time. The TGI in experiment [7] and in experiment [8] was over 100 µM in each case.
In the case of `COc1ccc(-c2ccc(CC(=O)O)cc2)cc1OC`, the TGI in [1], in experiment [2], in experiment [4], in [5], in experiment [6] and in [7] was over 100 µM throughout. In [8], the TGI was over 100 µM.

These data come from PubChem BioAssay (NCI).
